Consider 13 compounds from patent publication US20220227735A1, “THERAPEUTIC METHODS AND COMPOUNDS” (RUTGERS, THE STATE UNIVERSITY OF NEW JERSEY, priority 2019, published 2022).

One assay relates to human PKG (hPKG). The experiment in a line: Human PKG IMAP fluorescence polarization kinase assay. The assay is classed as biochemical. The following applies: compound at 10 μm; recombinant hPKG, 10 uM ATP, 1 uM cGMP, FAM-IP3R substrate. The text has this:
Human PKG, cloned into a pENTR221 vector, was obtained from DNASU.org. (HsCD00351766). It was cloned into a mammalian expression plasmid, Gateway pDEST27 (Invitrogen) for expression as a GST fusion protein, using LR Clonase II Plus enzyme (Invitrogen). The hPKG-pDEST27 plasmid was amplified in DH5a Max Efficiency Competent Cells and purified with a PureYield Plasmid Midiprep System (Promega) following the manufactures protocol. Expi293 cells were transfected with hPKG-pDEST27 using the Expifectamine 293 Transfection Kit (Gibco). After 18 hours, enhancing reagent (Gibco) was added. Cells were then collected 48 hours post-enhancing, centrifuged at 2000×g for 10 min, washed in ice cold PBS and frozen as a pellet at −80° C. until protein purification. The cell pellet was lysed with Mammalian Protein Extraction Reagent (Thermo Fisher) for 10-15 minutes. The lysate was centrifuged at 21,000×g for 15 minutes at 4° C. The supernatant was incubated for 1 h at 4° C. with glutathione resin that was pre-washed 10 times with ice cold Wash Buffer (50 mM Hepes pH 7.8, 120 mM KCl, 20 mM NaCl, 10% glycerol). The resin was loaded onto a column and washed with resin wash buffer by gravity flow until no more protein was detectable in the washes by Bradford assay. Protein was eluted with 10 mg/ml glutathione in Wash buffer. The protein was concentrated using a 30K MWCO Corning Spin X concentrator and assayed for activity as described above.
(§1) Plasmodium falciparum PKG (PfPKG) and human PKG (hPKG) kinase activity was assayed using a commercial immobilized metal ion affinity-based fluorescence polarization (IMAP) assay according to the manufactures protocol (Molecular Devices). Briefly, kinase assays (20 μl in black half volume 96 well microtiter plates) contained; 10 mM Tris-HCl, pH 7.2, 10 mM MgCl2, 0.05% NaN3, 0.01% Tween® 20, 10 uM ATP, 1 uM cGMP and 21 ng of recombinant enzyme per well. Compounds were preincubated with enzyme at 25° C. for 15 minutes and reactions were initiated with addition of 120 nM fluorescent peptide substrates, FAM-PKAtide for PfPKG and FAM-IP3R for hPKG (Molecular Devices). Fluorescent polarization was measured using a Synergy 2 Microplate reader (BioTek, Winooski, Vt.). Fluorescent polarization was read in parallel and perpendicular with an excitation wavelength of 485 nm and an emission wavelength of 528 nm. IC50 data were analyzed using a four parameter logistic curve fit using Microsoft Excel Solver.
In general terms: In fluorescence polarisation assays a small probe gives low polarisation when free and higher when bound to something large.

In assay [1] the target is T1, Plasmodium falciparum PKG (PfPKG) (Plasmodium falciparum, UniProt Q8I719).
T1 construct: Full length PfPKG was cloned into the pTrcHisC vector for expression in BL21 (DE3) Star cells; His tag (pTrcHisC vector) (N); made in house; host or cells: E. coli BL21 (DE3) Star
The experiment in a line: PfPKG IMAP fluorescence polarization kinase assay. The assay is classed as biochemical. The procedure:
Full length PfPKG was cloned into the pTrcHisC vector for expression in BL21 (DE3) Star cells. An LB culture containing 50 ug/ml carbenicillin (250 mL) was grown overnight at 37° C. The following day the culture was cooled on ice for about 10-15 minutes and divided equally into two new 125 mL cultures. 125 ml of fresh LB broth containing carbenicillin was added to each flask bringing the volume of each flask to 250 ml. Cultures were shaken at 18° C. before induction with IPTG (1.0 mM) for 18-24 h. The bacterial pellet was frozen at −80° C. until protein purification. Cells were lysed with Bacterial Protein Extraction Reagent (Thermo Scientific) on ice for 10-15 min. Supernatant was obtained after centrifugation of lysate at 21,000×g for 15 min at 4° C. Supernatant was incubated for 30 minutes at 4° C. with rotation with HisPur Cobalt Resin (Thermo Scientific), pre-washed with Wash Buffer (50 mM Hepes pH 7.8, 120 mM KCl, 20 mM NaCl, 10 mM Imidazole). Resin was added to a gravity column that was allowed to empty through gravity flow. The resin was washed with Wash buffer until no more protein is eluted off the column as determined by Bradford assay. A second wash was performed with Wash buffer containing 300 mM NaCl as in the previous wash step. Bound protein was eluted in 50 mM Hepes pH 7.8, 120 mM KCl, 20 mM NaCl, 250 mM Imidazole. Protein was dialyzed overnight in 50 mM Hepes pH 7.8, 120 mM KCl, 20 mM NaCl and 10% glycerol, with two buffer exchanges. Dialyzed protein was concentrated in a Corning Spin-X concentrator and assayed for activity using the IMAP FP Progressive Screening Expression kit (Molecular Devices, catalog #R8127) following the manufacturer's protocol.
as §1

The mark [2] stands for this setting: recombinant PfPKG, 10 uM ATP, 1 uM cGMP, FAM-PKAtide substrate, read-out: PfPKG (μm).

Where two headings read alike, the source gives them in different places. Some results are limits rather than exact numbers.

T1 sequence (Q8I719 whole entry): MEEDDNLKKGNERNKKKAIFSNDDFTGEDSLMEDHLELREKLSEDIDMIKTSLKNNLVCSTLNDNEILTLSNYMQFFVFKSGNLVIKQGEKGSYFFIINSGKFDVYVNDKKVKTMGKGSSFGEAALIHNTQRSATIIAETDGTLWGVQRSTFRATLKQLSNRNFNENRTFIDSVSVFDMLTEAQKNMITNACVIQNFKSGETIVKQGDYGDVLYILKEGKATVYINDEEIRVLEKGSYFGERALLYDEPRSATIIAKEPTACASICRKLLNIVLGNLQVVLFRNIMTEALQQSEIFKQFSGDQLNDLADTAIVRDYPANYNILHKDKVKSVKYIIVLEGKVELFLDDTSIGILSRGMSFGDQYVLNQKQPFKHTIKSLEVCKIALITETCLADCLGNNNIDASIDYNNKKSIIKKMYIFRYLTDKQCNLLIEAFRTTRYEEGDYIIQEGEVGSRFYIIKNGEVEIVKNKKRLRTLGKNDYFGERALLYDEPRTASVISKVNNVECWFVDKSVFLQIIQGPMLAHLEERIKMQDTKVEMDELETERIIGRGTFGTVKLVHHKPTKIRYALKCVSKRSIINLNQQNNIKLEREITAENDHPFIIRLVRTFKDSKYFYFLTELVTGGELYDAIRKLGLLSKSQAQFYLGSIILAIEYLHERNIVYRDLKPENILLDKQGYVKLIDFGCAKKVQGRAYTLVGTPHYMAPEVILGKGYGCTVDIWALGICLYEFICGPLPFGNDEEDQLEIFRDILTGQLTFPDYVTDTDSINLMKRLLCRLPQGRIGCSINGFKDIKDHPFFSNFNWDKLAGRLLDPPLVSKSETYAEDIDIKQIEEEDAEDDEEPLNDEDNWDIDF

Take `CN1CCC(c2[nH]c(-c3ccc(F)cc3)c(-c3ccncc3)c2C(N)=O)CC1` [Example 19, 5-(4-fluorophenyl)-2-(1-methylpiperidin-4-yl)-4-(pyridin-4-yl)-1H-pyrrole-3-carboxamide]: in the assay with human PKG (hPKG), the “Human PKG (10 μm)” value is −8. Further, the IC50 in assay [1] (setting [2]) was less than 1 µM.
Turning to `CC(O)c1c(C2CCN(C)CC2)[nH]c(-c2ccc(F)cc2)c1-c1ccncc1` (centres unmarked) [Example 20, 1-(5-(4-fluorophenyl)-2-(1-methylpiperidin-4-yl)-4-(pyridin-4-yl)-1H-pyrrol-3-yl)ethan-1-ol], the “Human PKG (10 μm)” value with human PKG (hPKG) turned out to be 3. Also, the IC50 in assay [1] (setting [2]) is less than 1 µM.
In the same order, the values of `CN1CCC(c2[nH]c(-c3ccc(F)cc3)c(-c3ccncc3)c2CO)CC1` [Example 21, (5-(4-fluorophenyl)-2-(1-methylpiperidin-4-yl)-4-(pyridin-4-yl)-1H-pyrrol-3-yl)methanol] are 12 and less than 1 µM.
Take `CN(C)Cc1c(C2CCN(C)CC2)[nH]c(-c2ccc(F)cc2)c1-c1ccncc1` [Example 22, 1-(5-(4-fluorophenyl)-2-(1-methylpiperidin-4-yl)-4-(pyridin-4-yl)-1H-pyrrol-3-yl)-N,N-dimethylmethanamine]: the “Human PKG (10 μm)” value with human PKG (hPKG) is −3. Besides, in assay [1] (setting [2]), the IC50 is less than 1 µM.
Turning to `CNCc1c(C2CCN(C)CC2)[nH]c(-c2ccc(F)cc2)c1-c1ccncc1` [Example 23], the “Human PKG (10 μm)” value in the assay on human PKG (hPKG) was determined as 0. For the same compound, in assay [1] (setting [2]), the IC50 is less than 1 µM.
Consider `CCc1c(C2CCN(C)CC2)[nH]c(-c2ccc(F)cc2)c1-c1ccncc1` [Example 24, 4-(4-ethyl-2-(4-fluorophenyl)-5-(1-methylpiperidin-4-yl)-1H-pyrrol-3-yl)pyridine], for which the “Human PKG (10 μm)” value in the assay with human PKG (hPKG) is 43. For the same compound, the IC50 in assay [1] (setting [2]) is less than 1 µM.
Regarding `CN1CCC(c2[nH]c(-c3ccc(F)cc3)c(-c3ccncc3)c2CS(C)(=O)=O)CC1` [Example 25, 4-(2-(4-fluorophenyl)-5-(1-methylpiperidin-4-yl)-4-((methylsulfonyl)methyl)-1H-pyrrol-3-yl)pyridine], the “Human PKG (10 μm)” value in the assay on human PKG (hPKG) is recorded as 17. Besides, the IC50 in assay [1] (setting [2]) is less than 1 µM.
The corresponding values for `CN1C[C@@H]2C(c3cc(-c4ccncc4)c(-c4ccc(F)cc4)[nH]3)[C@@H]2C1` (stereo partly drawn) [Example 26, (1R,5S)-6-(5-(4-fluorophenyl)-4-(pyridin-4-yl)-1H-pyrrol-2-yl)-3-methyl-3-azabicyclo[3.1.0]hexane] are 7 and less than 1 µM.
For `CN1C2CCC1CC(c1cc(-c3ccncc3)c(-c3ccc(F)cc3)[nH]1)C2` (centres unmarked) [Example 27, 3-(5-(4-fluorophenyl)-4-(pyridin-4-yl)-1H-pyrrol-2-yl)-8-methyl-8-azabicyclo[3.2.1]octane], the “Human PKG (10 μm)” value with human PKG (hPKG) worked out at 32. The IC50 in assay [1] was less than 1 µM.
On to `CN1CCC(C)(c2cc(-c3ccncc3)c(-c3ccc(F)cc3)[nH]2)CC1` [Example 28, 4-(5-(1,4-dimethylpiperidin-4-yl)-2-(4-fluorophenyl)-1H-pyrrol-3-yl)pyridine], for which the “Human PKG (10 μm)” value with human PKG (hPKG) is reported as 29. The IC50 in assay [1] was less than 1 µM.
Take `CN1CCC(c2cc(-c3ccncc3)c(-c3ccc(C(F)(F)F)cc3)[nH]2)CC1` [Example 33, 4-(5-(1-methylpiperidin-4-yl)-2-(4-(trifluoromethyl)phenyl)-1H-pyrrol-3-yl)pyridine]: the “Human PKG (10 μm)” value with human PKG (hPKG) is 9. Further, in assay [1] (setting [2]), the IC50 was less than 1 µM.
The corresponding values for `COc1ccc(-c2[nH]c(C3CCN(C)CC3)cc2-c2ccncc2)cc1` [Example 34, 4-(2-(4-methoxyphenyl)-5-(1-methylpiperidin-4-yl)-1H-pyrrol-3-yl)pyridine] are 38 and less than 1 µM.
Regarding `CN1CCC(c2cc(-c3ccncc3)c(-c3ccc(F)cc3)[nH]2)CC1` [TSP, 4-(2-(4-fluorophenyl)-5-(1-methylpiperidin-4-yl)-1H-pyrrol-3-yl)pyridine, reference compound], the “Human PKG (10 μm)” value with human PKG (hPKG) was found to be 59. The IC50 in assay [1] (setting [2]) was less than 1 µM.
